Measurements: ChEMBL document CHEMBL3046358, “Multiple Pro-197 substitutions in the acetolactate synthase of rigid ryegrass (Lolium rigidum) and their impact on chlorsulfuron activity and plant growth” (Crop Prot, 2012)

Key:
Lolium rigidum [1] = experiment: Herbicidal activity against Lolium rigidum accession A10 assessed as fresh weight reduction applied at 4 times pre-emergence recommended rate relative to untreated control; type: functional; parameters: scale not given: the % may be the effect or the level left
Lolium rigidum [2] = experiment: Herbicidal activity against Lolium rigidum accession A06 assessed as emergence rate applied at 1 times pre-emergence recommended rate relative to untreated control; type: functional
Lolium rigidum [3] = experiment: Herbicidal activity against Lolium rigidum accession A15 assessed as fresh weight reduction applied at 1 times pre-emergence recommended rate relative to untreated control; type: functional; parameters: scale not given: the % may be the effect or the level left
[4] = biological target: T1, Acetolactate synthase (Lolium rigidum) (UniProt A7XBP7); experiment: Resistance index, ratio of I50 for acetolactate synthase Pro-197/Leu-197 mutant in Lolium rigidum accession A07 leaves extracts to I50 for acetolactate synthase in Lolium rigidum accession A01 leaves extracts
T1 sequence (whole entry): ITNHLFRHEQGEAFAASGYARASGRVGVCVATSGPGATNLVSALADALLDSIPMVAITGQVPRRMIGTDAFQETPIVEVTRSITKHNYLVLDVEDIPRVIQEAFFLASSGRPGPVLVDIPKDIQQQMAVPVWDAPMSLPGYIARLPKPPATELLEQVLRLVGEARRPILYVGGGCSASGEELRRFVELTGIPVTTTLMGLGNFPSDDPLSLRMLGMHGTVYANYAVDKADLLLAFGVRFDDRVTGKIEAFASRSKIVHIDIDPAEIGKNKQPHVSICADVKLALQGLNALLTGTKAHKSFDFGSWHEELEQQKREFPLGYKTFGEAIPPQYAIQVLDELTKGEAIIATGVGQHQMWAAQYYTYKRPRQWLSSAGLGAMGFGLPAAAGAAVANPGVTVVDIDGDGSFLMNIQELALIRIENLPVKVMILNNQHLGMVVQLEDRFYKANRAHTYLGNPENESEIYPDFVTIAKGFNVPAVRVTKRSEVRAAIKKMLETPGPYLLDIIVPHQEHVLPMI

Lolium rigidum [5] = experiment: Herbicidal activity against Lolium rigidum accession A04 assessed as emergence rate applied at 4 times pre-emergence recommended rate relative to untreated control; type: functional
Lolium rigidum [6] = experiment: Herbicidal activity against Lolium rigidum accession A04 assessed as fresh weight reduction applied at 4 times pre-emergence recommended rate relative to untreated control; type: functional; parameters: scale not given: the % may be the effect or the level left
Lolium rigidum [7] = experiment: Herbicidal activity against Lolium rigidum accession A06 assessed as fresh weight reduction applied at 1 times pre-emergence recommended rate relative to untreated control; type: functional; parameters: scale not given: the % may be the effect or the level left
Lolium rigidum [8] = experiment: Herbicidal activity against Lolium rigidum accession A07 assessed as emergence rate applied at 1 times pre-emergence recommended rate applied in pots where terbufos had been incorporated into the soil relative to untreated control; type: functional
Lolium rigidum [9] = experiment: Herbicidal activity against Lolium rigidum accession A10 assessed as emergence rate applied at 1 times pre-emergence recommended rate applied in pots where terbufos had been incorporated into the soil relative to untreated control; type: functional
Lolium rigidum [10] = experiment: Herbicidal activity against Lolium rigidum accession A11 assessed as emergence rate applied at 4 times pre-emergence recommended rate relative to untreated control; type: functional
Lolium rigidum [11] = experiment: Herbicidal activity against Lolium rigidum accession A09 assessed as emergence rate applied at 1 times pre-emergence recommended rate relative to untreated control; type: functional
[12] = biological target: T1, Acetolactate synthase (Lolium rigidum); experiment: Resistance index, ratio of I50 for acetolactate synthase Pro-197/Pro-197 mutant in Lolium rigidum accession A11 leaves extracts to I50 for acetolactate synthase in Lolium rigidum accession A01 leaves extracts
[13] = biological target: T1, Acetolactate synthase (Lolium rigidum); experiment: Resistance index, ratio of I50 for acetolactate synthase Pro-197/Pro-197 mutant in Lolium rigidum accession A09 leaves extracts to I50 for acetolactate synthase in Lolium rigidum accession A01 leaves extracts
Acetolactate synthase = Acetolactate synthase (Lolium rigidum, UniProt A7XBP7); experiment: Inhibition of acetolactate synthase Pro-197/Pro-197 mutant in Lolium rigidum accession A11 leaves extracts by acetolactate production assay; details: read-out: I50
Lolium rigidum [14] = experiment: Herbicidal activity against Lolium rigidum accession A11 assessed as emergence rate applied at 1 times pre-emergence recommended rate applied in pots where terbufos had been incorporated into the soil relative to untreated control; type: functional

**Q.** Which results are given for `COc1nc(C)nc(NC(=O)NS(=O)(=O)c2ccccc2Cl)n1` [CHLORSULFURON]?
**A.** Activity (Lolium rigidum [1]): 100%; Activity (Lolium rigidum [2]): 89%; Activity (Lolium rigidum [3]): 94%; Ratio [4]: 61; Activity (Lolium rigidum [5]): 1%; Activity (Lolium rigidum [6]): 95%; Activity (Lolium rigidum [7]): 0%; Activity (Lolium rigidum [8]): 85%; Activity (Lolium rigidum [9]): 3%; Activity (Lolium rigidum [10]): 1%; Activity (Lolium rigidum [11]): 44%; Ratio [12]: 1; Ratio [13]: 1; IC50 (Acetolactate synthase): 30 nM; Activity (Lolium rigidum [14]): 2%
